Patent US20210046101A1, “COMBINATION THERAPEUTICS” (UCL BUSINESS LTD, priority 2018, published 2021)
Where a SMILES comes first, the peptide text is derived from it. The star is where a group is joined. Cbz = O=C(OCc1ccccc1)*; CH2F = FC*

B1: TRAIL: TNF-related apoptosis-inducing ligand; used as mouse iz-TRAIL (protein, UniProt P50592 39-291, looked up)
extracellular domain: YMYFTNEMKQLQDNYSKIGLACFSKTDEDFWDSTDGEILNRPCLQVKRQLYQLIEEVTLRTFQDTISTVPEKQLSTPPLPRGGRPQKVAAHITGITRRSNSALIPISKDGKTLGQKIESWESSRKGHSFLNHVLFRNGELVIEQEGLYYIYSQTYFRFQEAEDASKMVSKDKVRTKQLVQYIYKYTSYPDPIVLMKSARNSCWSRDAEYGLYSIYQGGLFELKKNDRIFVSVTNEHLMDLDQEASFFGAFLIN
modifications: extracellular domain isoleucine zipper fusion

Assays:
[1] = system: PMKs derived from Hoip^E-KO mice; assay: Viability of primary murine keratinocytes (PMKs) from Hoip^E-KO mice cultured with inhibitors, CellTiter-Glo assay; format: cell-based, mouse; conditions: no exogenous stimulus, cultured four days with 20 μM Z-VAD-fmk, 10 μM Necrostatin-1s or 1 μM RIPK3 inhibitor (FIG. 3e)
Source text: FIG. 3. Aberrant apoptosis drives lethal dermatitis in Hoip^E-KO and Hoil-1^E-KO mice. a, Quantification of TUNEL and CC3 positive cells in skin sections from mice with the indicated genotypes (n=3 mice per genotype). Error bars represent mean values±s.e.m. *P≤0.05, **P≤0.01, ***P≤0.001. b, Representative images of skin sections from mice with the indicated genotypes (n=4) stained with antibody against CD45 (red) at P0. Nuclei were stained with DAPI (blue). White dashed lines separate the epidermis (above) from the dermis (below). Scale bar, 50 μm. c, Flow cytometry analysis of immune cells in skin samples from mice with the indicated genotypes at the indicated postnatal days. […] Lysates and IP were analysed by Western blotting for the indicated proteins. e, PMKs derived from Hoip^E-KO and control mice were cultured for four days in absence (NT: not-treated) or presence of the inhibitors Necrostatin-1s (N), ZVAD-fmk (Z) or RIPK3i. Cell viability (%) was measured by CellTiter-Glo assay on day four. […] CC3: cleaved Caspase-3. f, Cell viability (%) measured by CellTiter-Glo assay of PMKs derived from adult mice with the indicated genotypes. Results are expressed as mean values±SEM (n=8 mice per genotype). […] CC3: cleaved Caspase-3. i, Quantification of TUNEL and CC3 positive cells in skin sections from mice with the indicated genotypes (n=3 mice per genotype). […]

[2] = system: PMKs derived from Tnfr1^KO;Hoil-1^E-KO mice; assay: Viability of PMKs from Tnfr1^KO;Hoil-1^E-KO mice after death ligand / Poly(I:C) stimulation, CellTiter-Glo assay; format: cell-based, mouse; conditions: 24 hours; TRAIL 50 ng/ml, CD95L 50 ng/ml, Poly(I:C) 100 μg/ml; control = Tnfr1^KO PMKs with HOIL-1 (FIG. 4a)
Method: FIG. 4. CD95L- and TRAIL-induced cell death drives TNFR1-independent dermatitis. a, PMKs derived from adult mice with the indicated genotypes were treated or not for 24 hours with TRAIL [50 ng/ml], CD95L [50 ng/ml] and Poly(I:C) [100 μg/ml]. Cell viability (%) was measured by CellTiter-Glo assay. Results are expressed as mean values±SEM. (n=7 mice per genotype). **p≤0.01, ***p≤0.001, NS=not significant. Control mice represent a pool of Tnfr1^KO;Hoil-1^fl/fl;K14-Cre− and Tnfr1^KO;Hoil-1^fl/wt;K14-Cre+ mice b, Representative images of mice with the indicated genotypes. c, Severity score of dermatitis was assessed at P70 in mice with the indicated genotypes. The total score was determined by evaluating the regions of the body affected by the lesions (black) and the character of the lesion (white). Tnfr1^KO;Hoil-1^E-KO (n=6), Trail-r^KO;Tnfr1^KO;Hoil-1^E-KO (n=4), Tlr3^KO;Tnfr1^KO;Hoil-1^E-KO (n=4), Cd95^E-DD; Tnfr1^KO; Hoil-1^E-KO (n=12), Trail-r^KO; Tlr3^KO;Tnfr1^KO;Hoil-1^E-KO (n=20) and Cd95^E-DD;Trail-r^KO;Tnfr1^KO;Hoil-1^E-KO (n=19), Mlkl^KO;Tnfr1^KO;Hoip^E-KO (n=13). d, Kaplan-Meier survival curve of mice with the indicated genotypes. […]
Isolation, culture and viability of primary murine keratinocytes. […] On the last day, cell viability was measured using the CellTiter-Glo Luminescent Cell Viability Assay kit (Promega) following the manufacturers instructions. […]

| Molecule | loss in viability of HOIP-deficient PMKs (cell viability, CellTiter-Glo) [1] | cell viability as compared to control PMKs (CellTiter-Glo) [2] |
| --- | --- | --- |
| COC(=O)C[C@H](NC(=O)[C@H](C)NC(=O)[C@@H](NC(=O)OCc1ccccc1)C(C)C)C(=O)CF [ZVAD, Z-VAD-fmk] (Cbz-Val-Ala-Asp(OMe)-CH2F) | prevented | – |
| CN1C(=O)NC(Cc2c[nH]c3c(Cl)cccc23)C1=O (stereo not shown) [necrostatin-1s, Necrostatin-1s] | prevented | – |
| Polyinosinic:polycytidylic acid [Poly(I:C)] | – | decreased cell viability |
| B1 | – | decreased cell viability |
